From PubChem BioAssay (NCI) come the findings set out here.

SMILES strings stand for the structures.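 How tested: cells in 96-well plates exposed to compound for 48 hours at five concentrations. TGI: concentration producing complete growth inhibition.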 Where a SMILES comes first, the peptide text is derived from it. [ ]: non-standard residue; d: D form. The star is where a group is joined. ξ: configuration not given here. NMeF = CN[C@@H](Cc1ccccc1)C(=O)O; NMeV = CN[C@H](C(=O)O)C(C)C; ξNMeV = CNC(C(=O)O)C(C)C; Boc = CC(C)(C)OC(=O)*; OBn = c1ccc(CO*)cc1

Test systems include K-562 leukemia; NCI-H460 lung; SW-620 colon; NCI-H522 lung; SNB-19 CNS; OVCAR-3 ovarian; OVCAR-8 ovarian; IGROV1 ovarian; TK-10 renal; HT29 colon.
Holding throughout (test): inhibition of tumour cell growth, NCI panel, 48 h

In the case of `O=c1/c(=C/c2ccccn2)sc2nc3cc4c(cc3n12)OCCO4`, the TGI in the experiment with K-562 leukemia, in the experiment on NCI-H460 lung, in the experiment on SW-620 colon, in the experiment with NCI-H522 lung, with SNB-19 CNS and in the experiment on OVCAR-3 ovarian was above 100 µM each time. The TGI with OVCAR-8 ovarian, in the experiment on IGROV1 ovarian, in the experiment on TK-10 renal and in the experiment on HT29 colon was above 100 µM throughout.

As to `CCN(CC)CCC1CCCCN1CC(=O)N1c2cc(Cl)ccc2NC(=O)CC1C` (configuration not stated), the TGI in the experiment on K-562 leukemia, in the experiment with NCI-H460 lung, with NCI-H522 lung, in the experiment with SNB-19 CNS, with OVCAR-3 ovarian and with OVCAR-8 ovarian was above 100 µM each time. Besides, the TGI in the experiment with IGROV1 ovarian, in the experiment on TK-10 renal and in the experiment with HT29 colon was above 100 µM throughout.

Consider `CC(=O)[C@@]1(c2ccccc2)CC2(CCN(C)CC2)O[C@H]1C`, for which the TGI in the experiment on K-562 leukemia, in the experiment with NCI-H460 lung, with SW-620 colon, in the experiment with NCI-H522 lung, in the experiment with SNB-19 CNS and with OVCAR-3 ovarian was above 100 µM each time. Besides, the TGI in the experiment on OVCAR-8 ovarian, with IGROV1 ovarian, in the experiment on TK-10 renal and with HT29 colon was above 100 µM throughout.

Take `O=c1[nH]cnc2c1cnn2Cc1cnnn1COCCO`: the TGI in the experiment on K-562 leukemia, in the experiment on NCI-H460 lung, in the experiment with SW-620 colon, in the experiment with NCI-H522 lung, in the experiment with SNB-19 CNS and in the experiment on OVCAR-3 ovarian was above 100 µM each time. Also, the TGI in the experiment with OVCAR-8 ovarian, in the experiment on IGROV1 ovarian, in the experiment on TK-10 renal and in the experiment on HT29 colon was above 100 µM in each case.

Regarding `CN(C)CCC[N+]1=Nc2cccc3cccc(c23)N1`, the TGI in the experiment with K-562 leukemia is above 100 µM; in the experiment with NCI-H460 lung, above 100 µM; with SW-620 colon, 44.9 µM; in the experiment on NCI-H522 lung, 91.2 µM; in the experiment on SNB-19 CNS, above 100 µM; in the experiment with OVCAR-3 ovarian, above 100 µM. Also, the TGI with OVCAR-8 ovarian, in the experiment on IGROV1 ovarian, with TK-10 renal and in the experiment with HT29 colon was above 100 µM in each case.

For `CSc1nc(NCc2ccccc2)c2cnn(COCCO)c2n1`, the TGI in the experiment on K-562 leukemia, in the experiment on NCI-H460 lung, in the experiment with SW-620 colon, with NCI-H522 lung, with OVCAR-3 ovarian and in the experiment on OVCAR-8 ovarian was above 100 µM throughout. Moreover, the TGI in the experiment on IGROV1 ovarian, in the experiment with TK-10 renal and in the experiment with HT29 colon was above 100 µM in each case.

As to `CC(C)C(C(=O)N(C)[C@H](C(=O)N1CCC[C@H]1C(=O)N(C)[C@@H](Cc1ccccc1)C(=O)OCc1ccccc1)C(C)C)N(C)C(=O)[C@@H](NC(=O)OC(C)(C)C)C(C)C` (some centres not stated) (Boc-V[ξNMeV][NMeV]P[NMeF]-OBn), the TGI with K-562 leukemia was 12.6 µM; in the experiment on NCI-H460 lung, above 31.6 µM; with SW-620 colon it was above 31.6 µM; in the experiment with NCI-H522 lung, above 100 µM; with SNB-19 CNS, above 31.6 µM; with OVCAR-3 ovarian it was above 100 µM. Moreover, the TGI with OVCAR-8 ovarian, in the experiment on IGROV1 ovarian, with TK-10 renal and in the experiment on HT29 colon was above 31.6 µM throughout.

Consider `Cc1ccnc(Nc2[nH]c(C(=O)c3ccc(Cl)cc3)c(N)c2C(=S)Nc2ccccc2)c1`, for which the TGI in the experiment on K-562 leukemia turned out to be 52.4 µM; with NCI-H460 lung it was 27.3 µM; in the experiment on SW-620 colon, 69.6 µM; in the experiment with NCI-H522 lung, 27.1 µM; in the experiment on SNB-19 CNS, 64.1 µM; in the experiment on OVCAR-3 ovarian it was 93 µM. The TGI in the experiment with OVCAR-8 ovarian amounted to 34.5 µM; with IGROV1 ovarian it was 30.9 µM; in the experiment with TK-10 renal, 69.2 µM; with HT29 colon, 28.6 µM.

Turning to `Brc1ccc(-c2cc3c(cc2C2SCCS2)OCO3)cc1`, the TGI in the experiment with K-562 leukemia was above 100 µM; with NCI-H460 lung it was above 100 µM; in the experiment with SW-620 colon, above 100 µM; in the experiment on NCI-H522 lung, 40.9 µM; in the experiment on SNB-19 CNS it was above 100 µM; with OVCAR-3 ovarian, 75.9 µM. For the same compound, the TGI with OVCAR-8 ovarian, with IGROV1 ovarian, in the experiment with TK-10 renal and in the experiment with HT29 colon was above 100 µM throughout.

For the compound `O=C(NC1=C(Cl)C(=O)c2ccccc2C1=O)C(=O)C(C(=O)c1ccc2ccccc2c1)C1OC(=O)c2ccccc21` (configuration not stated), the TGI in the experiment on K-562 leukemia worked out at 25.6 µM; in the experiment on NCI-H460 lung it was 12 µM; with SW-620 colon, 28.2 µM; in the experiment on NCI-H522 lung, 12.1 µM; with SNB-19 CNS, 19 µM; in the experiment on OVCAR-3 ovarian, 9.77 µM. Moreover, the TGI was determined as 24.5 µM in the experiment on OVCAR-8 ovarian, 27 µM in the experiment on IGROV1 ovarian, 65.1 µM in the experiment with TK-10 renal and 17.7 µM in the experiment with HT29 colon.

As for `CN1C(=O)C23CCCC2CC1(c1ccccc1)S3` (configuration not stated), the TGI in the experiment with K-562 leukemia, with SW-620 colon, with NCI-H522 lung, with SNB-19 CNS, in the experiment on OVCAR-3 ovarian and in the experiment on OVCAR-8 ovarian was above 100 µM throughout. The TGI in the experiment with IGROV1 ovarian, in the experiment with TK-10 renal and in the experiment with HT29 colon was above 100 µM throughout.

With `C(=C/c1nnnn1-c1ccccc1)/Nc1ccccc1`, the TGI with K-562 leukemia is above 100 µM; with NCI-H460 lung, above 100 µM; in the experiment with SW-620 colon, above 100 µM; in the experiment with NCI-H522 lung it was 81.8 µM; in the experiment on SNB-19 CNS, 96.8 µM; with OVCAR-3 ovarian, 96 µM. The TGI was above 100 µM in the experiment with OVCAR-8 ovarian, above 100 µM in the experiment with IGROV1 ovarian, 77.5 µM in the experiment with TK-10 renal and above 100 µM with HT29 colon.

For `CCC(Nc1ncnc2nc[nH]c12)C(=O)O` (configuration not stated), the TGI with K-562 leukemia, in the experiment on NCI-H460 lung, in the experiment with SW-620 colon, in the experiment on NCI-H522 lung, with SNB-19 CNS and with OVCAR-3 ovarian was above 100 µM in each case. Further, the TGI with OVCAR-8 ovarian, in the experiment with IGROV1 ovarian, in the experiment on TK-10 renal and with HT29 colon was above 100 µM in each case.
